From PubChem BioAssay AID179 (DTP/NCI, 2004)
pEC50, pIC50: −log10 of the molar value. Active and inactive are the calls of the source.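 Rule for the calls: active = compounds giving half or more protection of infected cells from virus-caused growth loss, again on retest; inactive = the rest.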

System: CEM cells HIV-1 protection, formazan growth assay
Assay: NCI AIDS Antiviral Assay
Details: for pIC50: measured here: growth of uninfected CEM cells
Procedure, shortened: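 Steps: treat uninfected and HIV-1-infected human CEM cells at five drug levels; quantify growth by soluble formazan; retest any compound reaching 50% protection; classify actives from the retest.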

Structure (SMILES) | pEC50 | pIC50 | outcome
O=C(O)Cn1c(=O)[nH]c(=O)c2c1ncn2Cc1ccccc1 | < 3.08 | < 3.08 | 
COc1cc2c(cc1O)C(=O)OC1CC=C3CC[N@@+](C)([O-])[C@H]3C21 (stereo partly specified) | < 3.71 | < 3.71 | 
CC(C)Oc1c(O)c2c3c(oc(=O)n3C=CC2c2ccccc2F)c1OC(C)C (stereo unspecified) | < 3.70 | 4.53 | 
O=C1c2cccc3cccc(c23)C(=O)N1CCNCCN1C(=O)c2cccc3cccc(c23)C1=O | < 4.53 | 4.98 | 
COc1ccc(C2C(C)C(=O)C(C)C(c3ccc(OC)cc3)N2N=O)cc1 (stereo unspecified) | < 4.71 | < 4.71 | 
C=CCc1c(O)c2ccccc2[nH]c1=O | < 3.70 | < 3.70 | 
CC(C)=CCN1Cc2cccc([N+](=O)[O-])c2NC[C@@H]1C | < 4.07 | < 4.07 | 
Cc1csc2nc(-c3ccco3)nn12 | < 3.70 | < 3.70 | 
COC1/C=C/OC2(C)Oc3c(C)c(O)c4c(O)c(c(/C=N/OCCN5CCCCC5)c(O)c4c3C2=O)NC(=O)C(C)=C/C=C/C(C)C(O)C(C)C(O)C(C)C(OC(C)=O)C1C (stereo unspecified) | < 4.00 | 4.55 | 
CN1C(=O)C2CSCN2C1=S (stereo unspecified) | < 3.02 | 3.50 | 
C#CCOC(=O)C=[N+]=[N-] | < 3.70 | < 3.70 | 
CCCCC1(c2sccc2C(O)(C(F)F)C(F)(F)F)NC(C)(C)CO1 (stereo unspecified) | < 3.70 | 3.90 | 
CNc1ccc(Cl)cc1S(=O)(=O)c1ccccc1 | 5.22 | < 3.70 | 
CCOc1cc(C2=NNc3n[nH]c(=S)n3N2)ccc1O | 3.82 | 3.48 | 
CCOC(=O)c1sc2c(c1O)c(=O)n(-c1ccccc1)c(=S)n2-c1ccccc1 | < 4.77 | < 4.77 | 
O=C(c1cccs1)N1CCc2ccccc2C1 | < 3.79 | 3.97 | 
Cc1cccc(N=Nc2c(S(=O)(=O)O)cc3cc(NC(=O)Nc4ccc5c(O)c(N=Nc6ccc7cc(S(=O)(=O)O)ccc7c6)c(S(=O)(=O)O)cc5c4)ccc3c2O)c1 | 4.80 | 4.12 | 
C=C1C(=O)OCC2C(C(=O)O)=CC3C(C)C(C)=CC123 (stereo unspecified) | < 3.16 | 4.95 | 
Cc1cc(S(=O)(=O)/N=C(/NN)Nc2ccc(Cl)cc2)c(S)cc1Cl | < 3.70 | 5.00 | 
C=C(c1ccccc1)N1N=NC2CCOC21 (stereo unspecified) | < 3.70 | < 3.70 | 
CC(C)CCc1n[nH]c(=O)n1/N=C\c1ccccc1 | < 3.70 | 4.18 | 

Structure (SMILES) | pEC50 | pIC50 | outcome
COc1ccccc1/C=C1\Cc2ccccc2C1=O | < 4.68 | < 4.68 | 
Cc1cccc2c(=O)c3cccc([C@H](C)C(=O)O)c3oc12 | < 3.70 | < 3.70 | 
C=C[C@@H]1c2ccccc2C=C[C@]12C=CC(=O)CC2 | < 4.24 | 4.66 | 
O=C(N/N=C\c1cccs1)c1ccncc1 | < 3.70 | < 3.70 | 
CC1c2c(cc(=O)[nH]c2O)C(=O)N1Cc1ccccc1 (stereo unspecified) | < 3.46 | 3.52 | 
O=C(O)CN1CCNCCN(CC(=O)O)CC1 | < 4.00 | 5.01 | 
C[N+]12C=CC=C1C(N1CCCC1)c1scc(-c3ccc(F)cc3)c12 (stereo unspecified) | < 3.70 | 4.61 | 
COc1ccc2nc3cc(Cl)ccc3c(NCCCNCCCNc3c4ccc(Cl)cc4nc4ccc(OC)cc34)c2c1 | < 5.70 | 7.83 | 
Cn1c2ccc(Cl)cc2c2ccc3c(c21)C(=O)C=CC3=O | < 4.00 | 4.89 | 
O=C1CCCCC1CN1CCCC1 (stereo unspecified) |  |  | inactive
O=[N+]([O-])c1ccc(/C=C/c2ccc(N=Nc3ccc(/C=C/c4ccc([N+](=O)[O-])cc4S(=O)(=O)O)c(S(=O)(=O)O)c3)cc2S(=O)(=O)O)c(S(=O)(=O)O)c1 | 4.90 | < 3.70 | 
CCCCCCCCCC=C(c1cc(Cl)c(OC)c(C(=O)O)c1)c1cc(Cl)c(OC)c(C(=O)O)c1 | 3.58 | 3.50 | 
COC(=O)/C([Se]c1c(C)cc(C)cc1C)=C(/[Se]c1c(C)cc(C)cc1C)C(=O)OC |  |  | inactive
CC(=O)OCC1OC(n2ncc(=O)[nH]c2=O)C(OC(C)=O)C1OC(C)=O (stereo unspecified) | < 5.70 | 5.98 | 
CC1=CCC[C@@]2(C)C(CC[C@@H]2C(C)/C=C/C(C)C)c2ccc(cc2C(=O)O)C[C@@H](O)CC1 (stereo partly specified) |  |  | inactive
COc1ccc(Nc2cc[nH]c(=O)c2NC(C)=O)cc1 | < 3.32 | < 3.32 | 
Cc1cc(SSc2cc(C)c3ccccc3n2)nc2ccccc12 | < 3.70 | 3.96 | 
O=C1NC(N/N=C\C(O)C(O)C(O)C(O)CO)=N/C1=C\c1ccc(Cl)cc1 (stereo unspecified) | < 3.70 | 4.47 | 
Nc1nc2c3nc(Nc4ccccc4)sc3nc(=O)n2c2sc(Nc3ccccc3)nc12 | < 5.23 | < 5.23 | 
NC(N)=NS(=O)(=O)c1ccc(Nc2c3ccccc3nc3c(C(=O)N4CCN(CCO)CC4)cccc23)cc1 | < 4.39 | < 4.39 | 
OC(C#CCN1CCCC1)(c1ccccc1)c1ccc(Cl)cc1.[C-]#[O+].[C-]#[O+].[C-]#[O+].[C-]#[O+].[C-]#[O+].[C-]#[O+].[Co].[Co] (stereo unspecified) | < 3.70 | 5.25 | 
